Laboratory results reported in patent US20070042971A1, “Crystalline compound of 4'-demethyl-4'-phosphate-2", 3"-bispentafluorophenoxy-acetyl-4", 6"-ethylidene-beta-d-epipodophyllotoxin glucoside either in its free form or solvated with ethanol” (Pierre Fabre Medicament, priority 2003, published 2007).
In brackets after ≈: the same amount, converted by molar mass. Entries after “also recorded” stand apart in the source; their conditions may differ. Where two headings read alike, the source gives them in different places.

Key:
P388 leukemia [1] = settings: mice implanted with the P388 leukemia model; cited from earlier work
P388 leukemia [2] = tested on: P388 leukemia
[3] = Solubility in water and ethanol; assay type: physicochemical
[4] = cited from earlier work
[5] = powdered form; for % of degradation products after 1 month at 30° C. with 75% relative humidity: open bottle
[6] = listed as hemiethanolate compound of formula 3 in crystalline form

Compound: 4′-demethylepipodophyllotoxin 2″,3″-bispentafluoro-phenoxyacetyl-4″,6″-ethylidene-β-D-glucoside 4′-phosphate [Compound of formula 1]
- stability on conservation (conserved at 4° C. and, a fortiori, at ambient temperature): degrades over time
- stability (usual conditions of neutral and acid pH and of temperature): stable
- survival (P388 leukemia [1]): long survival

Compound: COc1cc(C2c3cc4c(cc3[C@@H](OC3OC5COC(C)OC5C(OC(=O)COc5c(F)c(F)c(F)c(F)c5F)C3OC(=O)COc3c(F)c(F)c(F)c(F)c3F)[C@H]3COC(=O)C23)OCO4)cc(OC)c1OP(=O)(O)O (stereo partly drawn) [Compound of formula 2 in amorphous form, 4′-demethylepipodophyllotoxin 2″,3″-bispentafluoro-phenoxyacetyl-4″,6″-ethylidene-β-D-glucoside 4′-phosphate]
- antitumor activity (in words) (P388 leukemia [2]; mouse, in vivo): does not induce any significant antitumor activity
- in vivo antitumor activity (in words) (P388 leukemia [2]; mouse, in vivo): did not have the in vivo activity
- T/C values (%) (P388 leukemia [2]; mouse, in vivo, ip, 40 mg/kg): 100%
- T/C values (%) (P388 leukemia [2]; mouse, in vivo, ip, 80 mg/kg): 114%
- T/C values (%) (P388 leukemia [2]; mouse, in vivo, ip, 160 mg/kg): 157%
- solubility in ethanol (in words) ([3]; ethanol): soluble
- solubility in water (in words) ([3]; water): is not

Compound: COc1cc(C2c3cc4c(cc3[C@@H](OC3OC5COC(C)OC5C(OC(=O)COc5c(F)c(F)c(F)c(F)c5F)C3OC(=O)COc3c(F)c(F)c(F)c(F)c3F)[C@H]3COC(=O)C23)OCO4)cc(OC)c1OP(=O)(O)O (stereo partly drawn) [Crystalline formula 2, 4′-demethylepipodophyllotoxin 2″,3″-bispentafluorophenoxyacetyl-4″,6″-ethylidene-β-D-glucoside 4′-phosphate]
- in vivo antitumor activity (in words) (P388 leukemia [2]; mouse, in vivo): exhibits the required pharmacological activity; also recorded: high-level antitumor activity
- prolongation of the survival of the animals (P388 leukemia [2]; mouse, in vivo, 40 mg/kg): 43%
- prolongation of the survival of the animals (P388 leukemia [2]; mouse, in vivo, 160 mg/kg): 200%
- T/C values (%) (P388 leukemia [2]; mouse, in vivo, ip, 40 mg/kg): 143%
- T/C values (%) (P388 leukemia [2]; mouse, in vivo, ip, 80 mg/kg): 157%
- T/C values (%) (P388 leukemia [2]; mouse, in vivo, ip, 160 mg/kg): 300%

Compound: COc1cc([C@@H]2c3cc4c(cc3[C@@H](O[C@@H]3O[C@@H]5CO[C@@H](C)O[C@H]5[C@H](O)[C@H]3O)[C@H]3COC(=O)[C@H]23)OCO4)cc(OC)c1OP(=O)(O)O [Etopophos]
- solubility in water [4]: 100 mg/mL (≈ 150 mM)

Compound: hemiethanolate of 4′-demethylepipodophyllotoxin 2″,3″-bispentafluoro-phenoxyacetyl-4″,6″-ethylidene-β-D-glucoside 4′-phosphate
- % of degradation products after 1 month at 30° C. with 75% relative humidity [5]: 1.8%
- % of degradation products after 1 month at 30° C. with 75% relative humidity [5, 6]: 1.8%
- % of degradation products after 1 month at 40° C. in a closed bottle [5]: 1.5%
- % of degradation products after 1 month at 40° C. in a closed bottle [5, 6]: 1.5%
- in vivo antitumor activity (in words) (P388 leukemia [2]; P388 leukemia model, overall, listed as compound of formula 3 in crystalline form): high-level antitumor activity
- in vivo antitumor activity (in words) (P388 leukemia [2]; P388 leukemia model, overall, listed as hemiethanolate of formula 3): exhibits the required pharmacological activity
- prolongation of the survival of the animals (P388 leukemia [2]; dose 40 mg/kg): 43%
- T/C values (%) (P388 leukemia [2]; dose 40 mg/kg, single intraperitoneal injection on day 1, median survival treated/control x 100): 143%
- T/C values (%) (P388 leukemia [2]; dose 80 mg/kg, single intraperitoneal injection on day 1, median survival treated/control x 100): 143%
- prolongation of the survival of the animals (P388 leukemia [2]; dose 160 mg/kg): 229%
- T/C values (%) (P388 leukemia [2]; dose 160 mg/kg, single intraperitoneal injection on day 1, median survival treated/control x 100): 329%
